ChEMBL document CHEMBL4385649, “Cyclic heptapeptides from the soil-derived fungus Clonostachys rosea” (Bioorg Med Chem, 2019)
Calls of active or inactive are those of the source. The rule behind the calls is not given here.

Key:
Assay type in all cases: functional, cell-based
[1] = tested on: L5178Y; experiment: Cytotoxicity against mouse L5178Y cells assessed as reduction in cell viability at 10 uM by MTT assay
[2] = tested on: A2780; experiment: Cytotoxicity against human A2780 cells assessed as reduction in cell viability at 10 uM by MTT assay
[3] = tested on: L5178Y; experiment: Cytotoxicity against mouse L5178Y cells assessed as reduction in cell viability by MTT assay
[4] = tested on: A2780; experiment: Cytotoxicity against human A2780 cells assessed as reduction in cell viability by MTT assay

| SMILES | Activity [1] | Activity [2] | IC50 [3] [nM] | IC50 [4] [µM] |
| --- | --- | --- | --- | --- |
| CCC/C=C/CCC(=O)[C@]1(O)C(=O)N[C@@H](C)[C@@H]1O | inactive | inactive |  |  |
| O=C1OC(O)C=C1O (stereo not given) | inactive | inactive |  |  |
| CS[C@@]1(Cc2c[nH]c3ccccc23)NC(=O)[C@@](SC)(C(C)O)NC1=O (stereo not given in full) | inactive | inactive |  |  |
| C/C=C/C=C\[C@@H](O)[C@H]1CCC(=O)O1 | inactive | inactive |  |  |
| CC(C)C[C@H]1NC(=O)CNC(=O)CCNC(=O)[C@@H](Cc2c[nH]c3ccccc23)NC(=O)[C@H](C(C)C)NC(=O)[C@H](C(C)C)NC(=O)[C@H](C(C)C)NC1=O | inactive | inactive |  |  |
| C[C@@H](O)[C@@]12SS[C@]3(C(=O)N1C)[C@@H](O)C1(C45c6ccccc6N[C@@H]4N4C(=O)[C@]6([C@@H](C)O)SS[C@]4(C(=O)N6C)[C@H]5O)c4ccccc4N[C@@H]1N3C2=O (stereo not given in full) |  |  | 100 | 3.5 |
| CC[C@H](C)[C@H]1NC(=O)[C@@H](CC(C)C)NC(=O)CNC(=O)CCNC(=O)[C@@H](Cc2c[nH]c3ccccc23)NC(=O)[C@H](C(C)C)NC(=O)[C@H](C(C)C)NC1=O |  |  | 4100 |  |
| CC[C@H](C)[C@H]1NC(=O)[C@@H](CC(C)C)NC(=O)CNC(=O)CCNC(=O)[C@@H](Cc2c[nH]c3ccccc23)NC(=O)[C@H](C(C)C)NC(=O)[C@@H]([C@@H](C)CC)NC1=O | inactive | inactive |  |  |
